Values of other authors, collected in patent US6967090B2, “Nucleic acid and protein sequences of bovine epidermal growth factor” (Her Majesty the Queen in right of Canada, as represented by …, priority 2001, dated 2005).

How the values were obtained:
[1] = daily, 100 μg/kg body weight for nine days; U.S. Pat. No. 5,753,622
[2] = system: jejunal brush-border membranes; conditions: rodent
enteric infections = conditions: oral administration; Buret et al., 1997
gut cells = conditions: piglet; WO 88/04180
rotavirus = conditions: piglets infected with rotavirus; Zijlstra et al., 1994
gastric acid secretion = conditions: Hollenberg and Gregory 1980
EGF receptor = EGF receptor (Homo sapiens, UniProt P00533); conditions: Tadaki and Niyogi, 1993

Question: Which results are given for “EGF: 6 kDa polypeptide composed of 53 amino acids; species of origin not stated in the cited studies”?
Answer: weight gain [1]: enhances weight gain; electrolytes, glucose and proline transport [2]: increases electrolytes, glucose and proline transport; rate of enteric infections (enteric infections): reduces the rate of enteric infections; reduction in weight gain caused by infection (enteric infections): prevents the reduction in weight gain caused by infection; lactase and alkaline phosphatase activities (gut cells): without any marked effect; sucrase and maltase activity (gut cells): enhancing both sucrase and maltase activity; intestinal functions (rotavirus): improves intestinal functions

Question: Which “capacity to inhibit gastric acid secretion” value (gastric acid secretion) does the source give for “human EGF, lacking the last five amino acids on the COOH end: truncated human EGF lacking the last five amino acids on the COOH end (NSDSECPLSHDGYCLHDGVCMYIEALDKYACNCVVGYIGERCQYRDLK; not fully specified; Epidermal growth factor; UniProt P01133 971-1018, looked up, fragment)” here?
Answer: retains its capacity to inhibit gastric acid secretion

Question: Which “effect of substitution on binding to receptor” value (EGF receptor) does the source give for “human EGF: human EGF variant with tyrosine replaced by phenylalanine at position 13 (NSDSECPLSHDGFCLHDGVCMYIEALDKYACNCVVGYIGERCQYRDLKWWELR; not fully specified; Epidermal growth factor; UniProt P01133 971-1023, looked up, variant Y13F)” here?
Answer: little effect on the binding
